Results from the supplement of paper PMC12137928.
Where a name gives a salt, the structure may show the parent alone.

Tested on: HCT116
Settings: 72 h
Method in brief: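 Each well of the 1536-well plates received 250 HCT116 cells, which attached over 5 h. Luminescence was measured with CellTiter-Glo, scaled with vehicle as 0% and positive control as -100%, and pattern-corrected. A four-parameter Hill fit yielded IC50 and maximal efficacy.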

Row | SMILES | IC50 cell viability (ICRF193 0 nM) [µM] | IC50 cell viability (ICRF193 200 nM) [µM]
1 | COC(=O)CCC[N+](C)(C)C [Carpronium chloride] | > 45.8 | > 45.8
2 | CC(C)(C)NCC(O)COc1cccc2c1CCC(=O)N2 (configuration not stated) [Carteolol hydrochloride] | > 45.8 | > 45.8
3 | CC[C@H](C)C[C@H](C)CCCCCCCCC(=O)N[C@H]1C[C@@H](O)[C@@H](NCCN)NC(=O)[C@@H]2[C@@H](O)CCN2C(=O)[C@H]([C@H](O)CCN)NC(=O)[C@H]([C@H](O)[C@@H](O)c2ccc(O)cc2)NC(=O)[C@@H]2C[C@@H](O)CN2C(=O)[C@H]([C@@H](C)O)NC1=O [Caspofungin Acetate] | > 45.8 | > 45.8
4 | Cc1nnc(SCC2=C(C(=O)O)N3C(=O)[C@@H](NC(=O)Cn4cnnn4)[C@H]3SC2)s1 [Cefazolin] | > 45.8 | > 45.8
5 | CC/C=C(\C(=O)N[C@@H]1C(=O)N2C(C(=O)OCOC(=O)C(C)(C)C)=C(COC(N)=O)CS[C@H]12)c1csc(N)n1 [Cefcapene pivoxil hydrochloride] | > 45.8 | > 45.8
6 | C=CC1=C(C(=O)O)N2C(=O)[C@@H](NC(=O)/C(=N\O)c3csc(N)n3)[C@H]2SC1 [Cefdinir] | > 45.8 | > 45.8
7 | CO/N=C(\C(=O)N[C@@H]1C(=O)N2C(C(=O)OCOC(=O)C(C)(C)C)=C(/C=C\c3scnc3C)CS[C@H]12)c1csc(N)n1 [Cefditoren (Pivoxil)] | > 45.8 | > 45.8
8 | CO/N=C(/C(=O)N[C@@H]1C(=O)N2C(C(=O)OCOC(=O)C(C)(C)C)=C(C)CS[C@H]12)c1csc(N)n1 [Cefetamet pivoxil HCl] | > 45.8 | > 45.8
9 | CO[C@@]1(NC(=O)CSCC#N)C(=O)N2C(C(=O)O)=C(CSc3nnnn3C)CS[C@@H]21 [Cefmetazole sodium] | > 45.8 | > 45.8
10 | CO/N=C(\C(=O)N[C@@H]1C(=O)N2C(C(=O)[O-])=C(C[n+]3ccc(N)n3CCO)CS[C@H]12)c1csc(N)n1 [Cefoselis (sulfate)] | > 45.8 | > 45.8
11 | CN(C)CCn1nnnc1SCC1=C(C(=O)O)N2C(=O)[C@@H](NC(=O)Cc3csc(N)n3)[C@H]2SC1 [Cefotiam hydrochloride] | > 45.8 | > 45.8
12 | CO/N=C(\C(=O)N[C@@H]1C(=O)N2C(C(=O)[O-])=C(C[n+]3ccn4ncccc43)CS[C@H]12)c1nsc(N)n1 [Cefozopran hydrochloride] | > 45.8 | > 45.8
13 | CO/N=C(\C(=O)N[C@@H]1C(=O)N2C(C(=O)O)=C(Cn3nnc(C)n3)CS[C@H]12)c1csc(N)n1 [Cefteram] | > 45.8 | > 45.8
14 | O=C(Cn1cnnn1)N[C@@H]1C(=O)N2C(C(=O)O)=C(CSc3nncs3)CS[C@H]12 [Ceftezole sodium] | > 45.8 | > 45.8
15 | CO/N=C(\C(=O)N[C@@H]1C(=O)N2C(C(=O)O)=C(CSc3nc(=O)c(O)nn3C)CS[C@H]12)c1csc(N)n1 [Ceftriaxone disodium trihydrate] | > 45.8 | > 45.8
16 | CO/N=C(\C(=O)N[C@@H]1C(=O)N2C(C(=O)O)=C(CSc3cnns3)CS[C@H]12)c1csc(N)n1 [Cefuzonam hydrochloride] | > 45.8 | > 45.8
17 | O=C(Cc1cccs1)N[C@@H]1C(=O)N2C(C(=O)[O-])=C(C[n+]3ccccc3)CS[C@H]12 [Cephaloridine] | > 45.8 | > 45.8
18 | CCCCCCCCCCCCCCCCOc1nc2ccc(C)cc2c(=O)o1 [Cetilistat] | > 45.8 | > 45.8
19 | CC(=O)N[C@H](Cc1ccc2ccccc2c1)C(=O)N[C@H](Cc1ccc(Cl)cc1)C(=O)N[C@H](Cc1cccnc1)C(=O)N[C@@H](CO)C(=O)N[C@@H](Cc1ccc(O)cc1)C(=O)N[C@H](CCCNC(N)=O)C(=O)N[C@@H](CC(C)C)C(=O)N[C@@H](CCCNC(=N)N)C(=O)N1CCC[C@H]1C(=O)N[C@H](C)C(N)=O [Cetrorelix] | > 45.8 | > 45.8
20 | CC1OC2(CS1)CN1CCC2CC1 (configuration not stated) [Cevimeline hydrochloride] | > 45.8 | > 45.8
21 | CN(C)CCC(O)(c1ccccc1)c1ccccc1Cl (configuration not stated) [Chlophedianol] | > 45.8 | > 45.8
22 | O=C(O)CCCc1ccc(N(CCCl)CCCl)cc1 [Chlorambucil] | > 45.8 | > 45.8
23 | CN1CCN(C(c2ccccc2)c2ccc(Cl)cc2)CC1 (configuration not stated) [Chlorcyclizine] | > 45.8 | > 45.8
24 | NS(=O)(=O)c1cc2c(cc1Cl)CN(C1CCCCC1)C2=O [Chlorexolone] | > 45.8 | > 45.8

The next lines start with the values.

Row | IC50 cell viability (ICRF193 0 nM) [µM] | IC50 cell viability (ICRF193 200 nM) [µM] | SMILES
25 | > 45.8 | > 45.8 | CC(C(=O)O)c1ccc2c(c1)[nH]c1ccc(Cl)cc12 (configuration not stated) [Carprofen]
26 | > 45.8 | > 45.8 | CC(=O)OCC1=C(C(=O)O)N2C(=O)[C@@H](NC(=O)CC#N)[C@H]2SC1 [Cefacetrile]
27 | > 45.8 | > 45.8 | CC1=C(C(=O)O)N2C(=O)[C@@H](NC(=O)[C@H](N)c3ccc(O)cc3)[C@H]2SC1 [Cefadroxil]
28 | > 45.8 | > 45.8 | NC(=O)c1cc[n+](CC2=C(C(=O)[O-])N3C(=O)[C@@H](NC(=O)Cc4cccs4)[C@H]3SC2)cc1 [Cefalonium]
29 | > 45.8 | > 45.8 | Cn1nnnc1SCC1=C(C(=O)O)N2C(=O)[C@@H](NC(=O)[C@H](OC=O)c3ccccc3)[C@H]2SC1 [Cefamandole (nafate)]
30 | > 45.8 | > 45.8 | N[C@@H](C(=O)N[C@@H]1C(=O)N2C(C(=O)O)=C(CSc3c[nH]nn3)CS[C@H]12)c1ccc(O)cc1 [Cefatrizine]
31 | > 45.8 | > 45.8 | CCN1CCN(C(=O)N[C@@H](C(=O)N[C@]2(OC)C(=O)N3C(C(=O)O)=C(CSc4nnnn4C)CS[C@@H]32)[C@H](C)O)C(=O)C1=O [Cefbuperazone]
32 | > 45.8 | > 45.8 | C=CC1=C(C(=O)O)N2C(=O)[C@@H](NC(=O)/C(=N\OCC(=O)O)c3csc(N)n3)[C@H]2SC1 [Cefixime]
33 | > 45.8 | > 45.8 | CO[C@@]1(NC(=O)CSC[C@@H](N)C(=O)O)C(=O)N2C(C(=O)O)=C(CSc3nnnn3C)CS[C@@H]21 [Cefminox sodium]
34 | > 45.8 | > 45.8 | CCN1CCN(C(=O)N[C@@H](C(=O)N[C@@H]2C(=O)N3C(C(=O)O)=C(CSc4nnnn4C)CS[C@H]23)c2ccc(O)cc2)C(=O)C1=O [Cefoperazone sodium]
35 | > 45.8 | > 45.8 | NCc1ccccc1CC(=O)N[C@@H]1C(=O)N2C(C(=O)O)=C(CSc3nnnn3CC(=O)O)CS[C@H]12 [Ceforanide]
36 | > 45.8 | > 45.8 | CO/N=C(\C(=O)N[C@@H]1C(=O)N2C(C(=O)O)=C(COC(C)=O)CS[C@H]12)c1csc(N)n1 [Cefotaxime sodium salt]
37 | > 45.8 | > 45.8 | CO[C@@]1(NC(=O)Cc2cccs2)C(=O)N2C(C(=O)O)=C(COC(N)=O)CS[C@@H]21 [Cefoxitin]
38 | > 45.8 | > 45.8 | Cc1cc(O)c(C(=O)N[C@@H](C(=O)N[C@@H]2C(=O)N3C(C(=O)O)=C(CSc4nnnn4C)CS[C@H]23)c2ccc(O)cc2)cn1 [Cefpiramide (sodium)]
39 | > 45.8 | > 45.8 | CC=CC1=C(C(=O)O)N2C(=O)[C@@H](NC(=O)[C@H](N)c3ccc(O)cc3)[C@H]2SC1 [Cefprozil]
40 | > 45.8 | > 45.8 | COC1=C(C(=O)O)N2C(=O)[C@@H](NC(=O)[C@H](N)C3=CCC=CC3)[C@H]2SC1 [Cefroxadine]
41 | > 45.8 | > 45.8 | NC(=O)c1cc[n+](CC2=C(C(=O)[O-])N3C(=O)[C@@H](NC(=O)[C@@H](c4ccccc4)S(=O)(=O)O)[C@H]3SC2)cc1 [Cefsulodin Sodium Salt]
42 | > 45.8 | > 45.8 | CC(C)(O/N=C(\C(=O)N[C@@H]1C(=O)N2C(C(=O)[O-])=C(C[n+]3ccccc3)CS[C@H]12)c1csc(N)n1)C(=O)O [Ceftazidime]
43 | > 45.8 | > 45.8 | CO/N=C(\C(=O)N[C@@H]1C(=O)N2C(C(=O)OC(C)OC(C)=O)=C(COC(N)=O)CS[C@H]12)c1ccco1 (some centres not stated) [Cefuroxime Axetil]
44 | > 45.8 | > 45.8 | CCN(CC)C(=O)Nc1ccc(OCC(O)CNC(C)(C)C)c(C(C)=O)c1 (configuration not stated) [Celiprolol hydrochloride]
45 | > 45.8 | > 45.8 | CC1=C(C(=O)O)N2C(=O)[C@@H](NC(=O)[C@H](N)c3ccccc3)[C@H]2SC1 [Cephalexin]
46 | > 45.8 | > 45.8 | CC(=O)OCC1=C(C(=O)O)N2C(=O)[C@@H](NC(=O)Cc3cccs3)[C@H]2SC1 [Cephalothin]
47 | > 45.8 | > 45.8 | CC(=O)OCC1=C(C(=O)O)N2C(=O)[C@@H](NC(=O)CSc3ccncc3)[C@H]2SC1 [Cephapirin sodium]
48 | > 45.8 | > 45.8 | NC[C@H]1CC[C@H](C(=O)Oc2ccc(CCC(=O)O)cc2)CC1 [Cetraxate hydrochloride]
49 | > 45.8 | > 45.8 | CCCCCCCCCCCCCCCC(=O)OC[C@@H](NC(=O)C(Cl)Cl)[C@H](O)c1ccc([N+](=O)[O-])cc1 [Chloramphenicol palmitate]
50 | > 45.8 | > 45.8 | O=C(O)CCC(=O)OC[C@@H](NC(=O)C(Cl)Cl)[C@H](O)c1ccc([N+](=O)[O-])cc1 [Chloramphenicol sodium succinate]
51 | > 45.8 | > 45.8 | O=C(N[C@H](CO)[C@H](O)c1ccc([N+](=O)[O-])cc1)C(Cl)Cl [Chloramphenicol]
